Test results published in PubChem BioAssay AID1902 (Broad Institute, 2009).
pEC50: −log10 of the molar value. Activity calls are given as the source filed them.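 How the source made its calls: active means EC50 no more than a set limit of log units above the highest dose; inactive means the rest.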

target: S. pyogenes SKKanGAS, kanamycin survival, BacTiterGlo, 6 h; test: SKKanGAS survival reduction under kanamycin, dose response, streptokinase promoter inhibitor project, SKKanGAS strain, luminescence, dose confirmation (AID 1902);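 further: lower survival reflects blocked streptokinase promoter driving kanamycin resistance gene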

Structure (SMILES) | pEC50 | EC50
COc1cccc(NC(=O)Nc2nc(SC(C)(C)C)ns2)c1 | 5.09 | 
Cc1cc(C)c2nc(N3C(=O)C(O)=C(C(=O)c4ccco4)C3c3ccco3)sc2c1 (stereo not drawn) | 5.67 | 
CCCCCCCCCCCCC/C=C/[C@@H](O)[C@@H](N)CO | 5.59 | 
O=C(Nc1nnc(SCc2ccc(F)cc2)s1)c1ccc2c(c1)C(=O)N(c1ccccc1Cl)C2=O | 5.20 | 
Oc1ccccc1C(Nc1nccs1)c1ccc2cccnc2c1O (stereo not drawn) | 5.36 | 
O=c1cc(-c2ccccc2Cl)oc2c(NS(=O)(=O)c3cc(Cl)cc(Cl)c3O)ccc(O)c12 | 6.26 | 
Cc1ccc(-c2cc(C(=O)N3CCN(c4ccccc4O)CC3)c3ccccc3n2)cc1 | 5.05 | 
CCCCNc1c(-c2ccc(-c3ccc(C(C)=O)cc3)c(OC)c2)nc2cnccn12 | 5.25 | 
Cc1ccc(-c2cc(C(F)F)nc(N3CCC(C)CC3)n2)cc1 | 5.26 | 
COc1ccc(-c2[nH]ncc2N=Nc2cc(C)cc(C)c2)cc1 | 5.37 | 
CC(C)=CCC/C(C)=C/Cc1c(O)ccc(C(=O)/C=C/c2ccc(O)cc2)c1O | 5.99 | 
CC(C)(C)c1cc(C(=O)N/N=C/c2ccc([N+](=O)[O-])s2)n[nH]1 | 5.13 | 
Cc1ccc(/C=C/C(=O)NC(=S)Nc2ccc(S(=O)(=O)Nc3cc(C)on3)cc2)cc1 | 5.03 | 
CC(C(=O)NC1C(=O)N2C(C(=O)O)=C(CSc3nnnn3C)CSC12)n1cc(Cl)cn1 (stereo not drawn) | 7.11 | 
Nc1nc(NC(=O)/C=C/c2ccc(F)cc2)nn1-c1ccccc1 | 5.58 | 
CCOC(=O)C1=C(N)Oc2ccc3ccccc3c2C1c1ccc(O)cc1 (stereo not drawn) | 5.25 | 
Fc1ccc(-n2cc(-c3ccccc3)c3c(=S)nc[nH]c32)cc1 | 5.06 | 
Fc1cc(F)c(C2SCCN2C(=S)Nc2cccc(C(F)(F)F)c2)c(F)c1 (stereo not drawn) | 5.08 | 
CCCN(Cc1ccco1)S(=O)(=O)c1ccc(OC)c(OC)c1 |  | > 15 µM (inactive)
COc1ccc(C(=O)NC(=S)NNC(=O)c2ccccc2C)cc1 | 5.83 | 
Cn1c(Oc2ccccc2NCc2cc(Br)ccc2O)cc(=O)n(C)c1=O | 5.35 | 
O[C@@H]1CCCN2CCc3c([nH]c4ccccc34)[C@H]12 |  | > 15 µM (inactive)

Structure (SMILES) | pEC50 | EC50
CC(C)c1ccc(-c2nc(N3CCCC3)nc3n[nH]c(N)c23)cc1 | 5.06 | 
Cc1ccc(/C=N/NC(=O)Cc2ccc(Cl)cc2)c(O)c1 | 6.06 | 
O=C(NNC(=S)NC(=O)c1ccco1)c1ccc(NC(=O)c2ccccc2)cc1 | 5.92 | 
Cc1cc(C)n(-c2nc(NC(C)(C)C)nc(NC(C)(C)C)n2)n1 | 6.40 | 
COC(=O)c1c(NC(=O)c2ccc([N+](=O)[O-])o2)sc2c1CCN(C(C)C)C2 | 5.40 | 
Cc1cc(C(F)(F)F)c(C#N)c(SCC(=O)Nc2nc3cc(Br)ccc3s2)n1 | 5.24 | 
O=c1cc(/N=C/c2coc3c(ccc4ccccc43)c2=O)[nH]c(=S)[nH]1 | 5.82 | 
COc1cccc(/C=N/Nc2cc(C)nc(-c3ccccc3O)n2)c1O | 5.71 | 
CCc1ccc2c(c1)C1(NN=C(c3cccc4ccccc34)S1)C(=O)N2 (stereo not drawn) | 6.94 | 
Cc1cccc(NC(=O)c2cc3n(n2)C(C(F)(F)F)CC(c2ccc4c(c2)OCO4)N3)c1 (stereo not drawn) | 5.14 | 
Cc1ccc(-n2cc3c(-c4cccc(Br)c4)nnc(C)c3n2)cc1 | 5.15 | 
CSc1c(SCc2ccccc2)cnn(Cc2ccccc2)c1=O | 5.40 | 
CCc1nnc(NS(=O)(=O)c2ccc(NCc3cc(Cl)cc(Cl)c3O)cc2)s1 | 4.85 | 
C/C(=N\NC(=O)c1ccc(-c2ccccc2)cc1)C1C(=O)c2ccccc2C1=O | 5.96 | 
O=C1NC(=O)/C(=C\c2ccccc2OCc2ccccc2)S1 | 4.99 | 
COc1ccc(O)c(/C=N/Nc2nc(Nc3ccccc3)nc(-n3nc(C)cc3C)n2)c1 | 6.06 | 
O=C(Nc1ccc(Cl)c(Cl)c1)C1CC(=O)N(c2ccc(Br)cc2)C1 (stereo not drawn) | 5.35 | 
O=C(N/N=C/c1cccc(F)c1)c1c(O)c2ccccc2[nH]c1=O | 5.60 | 
CCC(C)c1ccc(C(C)NC(=S)NC2CCCCC2)cc1 (stereo not drawn) | 5.04 | 
Oc1cccc(NC(=S)N=Nc2c(O)[nH]c3ccc(Br)cc23)c1 | 5.63 | 
CCn1cc(C(=O)O)c(=O)c2cc(F)c(N3CCN(S(=O)(=O)c4ccc(NC(C)=O)cc4)CC3)cc21 | 5.33 | 
